The values below come from patent publication US11826453B2, “Hair care composition comprising piroctone olamine” (Conopco, Inc., priority 2019, dated 2023).

This data set is described as follows: Octopirox degradation under cool white light (LCMS / UPLC-UV). Type of data set: physicochemical. Particulars: 24 hours. The procedure:
The cool white light (CWL) irradiation was carried out in an X-Rite (Macbeth) Spectra Light III chamber. CWL mode was chosen which provides stable irradiation mimicking the indoor light. The intensity of light was fixed which estimated at 6 μw/cm2 for UVA and 1.5 μw/cm^2 for UVB. The chamber temperature was equal to the room temperature (20±2° C.). The sample was placed in a line close to the center of the chamber. After 24 hours, the sample was analyzed by LCMS (Water UPLC coupled with Quatro Micro MS), by quantitatively measured using UPLC-UV analysis following DPS derivatization.
The separation was performed by a UPLC BEH C18 column and the mobile phase was acetonitrile/water (60/40, 0.1% formic acid) in isocratic elution. Electrospray ionization in positive mode was applied for MS scan.

Each structure is given as a SMILES string.

Consider `Cc1cc(CC(C)CC(C)(C)C)n(O)c(=O)c1.NCCO` (centres unmarked) [Octopirox®, Piroctone olamine], for which the “quantity of Octopirox® after cool white light” value (cool white light (indoor light; 6 μw/cm2 UVA, 1.5 μw/cm^2 UVB), 20±2° C.) is on record as “reduced”. In addition, the “compound of formula 1 in the degradation product” value (cool white light, LCMS) is “no compound of formula 1 can be detected”.
